From paper PMC9696794, “Synthesis and Antimicrobial Activity of Short Analogues of the Marine Antimicrobial Peptide Turgencin A: Effects of SAR Optimizations, Cys-Cys Cyclization and Lipopeptide Modifications” (International Journal of Molecular Sciences, 2022)
≈ marks a conversion by molar mass, not a printed value. Where a SMILES comes first, the peptide text is derived from it. Bridges are numbered along the chain shown (N, C = ends). The star is where a group is joined. Lauroyl = CCCCCCCCCCCC(=O)*; Octanoyl = CCCCCCCC(=O)*

Key:
[1] = system: P. aeruginosa (Pa, ATCC 27853); test: microbe, parasite or virus in culture; format: cell-based, Pseudomonas aeruginosa; conditions: ATCC 27853, 24 h
How it was run: (§1)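 Cultures grown in Mueller–Hinton broth were adjusted by OD600 to 2.5–3 × 10^4 CFU/mL and mixed with two-fold peptide dilutions from 256 to 1 µg/mL. Plates were incubated at 35 °C with OD595 monitored every hour for 24 h.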

[2] = system: fungi (A. pullulans, C. albicans, Rhodotorula sp.); test: Antifungal MIC assay, all fungi together (range or geometric mean); format: cell-based; conditions: Table S3; MIC >128 set to 128
How it was run: (§2)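 Overnight cultures in potato dextrose broth with 2% glucose at 25–30 °C were diluted to approx. 4 × 10^5 spores/mL and mixed 1:1 with two-fold peptide dilutions plated at 256 to 1 µg/mL. After 48 h at room temperature, OD600 was read. MIC was the lowest concentration giving OD below 10% of the growth control, in triplicate.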

Rhodotorula sp. (Rh) = test: microbe, parasite or virus in culture; format: cell-based; conditions: 48 h
How it was run: as §2

E. coli (Ec, ATCC 25922) = test: microbe, parasite or virus in culture; format: cell-based, Escherichia coli; conditions: ATCC 25922, 24 h
How it was run: as §1

[3] = system: Gram-negative bacterial strains (E. coli and P. aeruginosa); test: Antibacterial MIC assay, Gram-negative strains together (range or geometric mean); format: cell-based; conditions: Table S3; MIC >256 set to 256
How it was run: as §1

[4] = system: S. aureus (Sa, ATCC 9144); test: microbe, parasite or virus in culture; format: cell-based, Staphylococcus aureus; conditions: ATCC 9144, 24 h
How it was run: as §1

[5] = system: C. albicans (Ca, ATCC 10231); test: microbe, parasite or virus in culture; format: cell-based, Candida albicans; conditions: ATCC 10231, 48 h
How it was run: as §2

all bacterial strains = test: Antibacterial MIC assay, all bacterial strains together (range or geometric mean); format: cell-based; conditions: for GM (geometric mean of the MIC values against all bacterial strains): Table 1, six bacterial strains; for GM of MIC Tot. bact.: Table S3, all bacterial test strains, MIC >256 set to 256
How it was run: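 Broth microdilution in Mueller–Hinton broth against B. subtilis, C. glutamicum, S. aureus, S. epidermidis RP62A, E. coli and P. aeruginosa; inoculum 2.5–3 × 10^4 CFU/mL, 35 °C, OD595 read hourly for 24 h. MIC: lowest peptide concentration giving OD below 10% of growth control; geometric mean across strains, triplicate.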

[6] = system: C. glutamicum (Cg, ATCC 13032); test: microbe, parasite or virus in culture; format: cell-based, Corynebacterium glutamicum; conditions: ATCC 13032, 24 h
How it was run: as §1

A. pullulans (Ap) = test: microbe, parasite or virus in culture; format: cell-based, Aurobasidium pollulans; conditions: 48 h
How it was run: as §2

[7] = system: Gram-positive bacterial strains; conditions: for GM of MIC G+: Table S3, MIC >256 set to 256
How it was run: as §1

[8] = system: E. coli NR698 (outer membrane permeable mutant, imp4213); test: microbe, parasite or virus in culture; conditions: MC4100 NR698 imp4213, deficient outer membrane
Method: (§3) All cyclic and linear peptides were screened for antibacterial activity against four Gram-positive strains: B. subtilis (Bs, ATCC 23857), C. glutamicum (Cg, ATCC 13032), S. aureus (Sa, ATCC 9144) and S. epidermidis RP62A (Se, ATCC 35984), and two Gram-negative strains: E. coli (Ec, ATCC 25922) and P. aeruginosa (Pa, ATCC 27853). The activity was assessed using a broth microdilution assay according to a modified CLSI-based method. Briefly, overnight bacterial cultures were grown in Mueller–Hinton (MH) broth medium (Difco Laboratories, Detroit, MI, USA) for 2 h at room temperature. The optical density (OD600) was measured, and the bacterial suspensions were adjusted to 2.5–3 × 10^4 CFU/mL in MH medium. The bacterial suspension (50 µL) was distributed in 96-well plates (Nunc, Roskilde, Denmark) preloaded with two-fold dilution series (256 to 1 µg/mL) of peptide solutions (50 µL), giving a final well volume of 100 µL. The microplates were incubated in an EnVision 2103 microplate reader (PerkinElmer, Llantrisant, UK) at 35 °C, with OD595 recorded every hour for 24 h. MIC was defined as the lowest concentration of peptides showing an optical density less than 10% of the negative (growth) control, consisting of bacterial suspension and water. Polymyxin B sulfate (Sigma-Aldrich, St. Louis, MO, USA) and chlorhexidine acetate (CHX, Fresenius Kabi, Halden, Norway), both with concentrations ranging from 12.5 to 0.09 μg/mL, served as positive (growth inhibition) controls. All peptides were tested in triplicate.
(§4) MIC values were determined for all cyclic peptides against two E. coli strains: wild type (WT) MC4100 and the hyperpermeable variant NR698, having a deficient outer membrane. The NR698 strain, containing lptD4213/imp4213 mutation, was kindly provided by M. Grabowicz (Emory University School of Medicine, Rollins Research Center, Atlanta, GA, USA). The assay was performed in the same way as previously described for the antibacterial MIC assay.

[9] = system: E. coli MC4100 (wild type, WT); test: microbe, parasite or virus in culture; conditions: wild type
Method: as §3, §4

[10] = system: S. epidermidis RP62A (Se, ATCC 35984); test: microbe, parasite or virus in culture; format: cell-based, Staphylococcus epidermidis; conditions: ATCC 35984, 24 h
How it was run: as §1

[11] = system: human red blood cells (RBC); test: Haemolytic activity assay; format: cell-based; conditions: for Selectivity index (SI) G-: EC50/GM of Gram-negative strains; for Selectivity index (SI) G+: EC50/GM of Gram-positive strains; for Selectivity index (SI) Fungi: EC50/GM of fungi; for RBC Tox. (EC50), haemolytic activity: human RBC, 1 h, 37 °C, concentration giving 50% haemolysis; for SI (selectivity index = EC50/GM): haemolytic EC50 over GM of MIC against all bacterial strains, Table 1
How it was run: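 Washed human erythrocytes (1% hematocrit final) incubated 1 h at 37 °C with agitation with lipopeptides at 500–3.9 μM in PBS (≤1% DMSO), duplicates. Haemoglobin release read at 545 nm relative to 0.1% Triton X-100; EC50 is 50% haemolysis, averaged from three experiments.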

[12] = system: B. subtilis (Bs, ATCC 23857); test: microbe, parasite or virus in culture; format: cell-based, Bacillus subtilis; conditions: ATCC 23857, 24 h
How it was run: as §1

[13] = Table S3, highest tested concentration used where EC50 above it

Compound	Antimicrobial Activity (MIC) Gram − Pa [1] [µg/mL]	GM of MIC Fungi [2] [µg/mL]	Antimicrobial Activity (MIC) Fungi Rh (Rhodotorula sp. (Rh)) [µg/mL]	Antimicrobial Activity (MIC) Gram − Ec (E. coli (Ec, ATCC 25922)) [µg/mL]	GM of MIC G- [3] [µg/mL]	Antimicrobial Activity (MIC) Gram + Sa [4] [µg/mL]	Antimicrobial Activity (MIC) Fungi Ca [5] [µg/mL]	GM (geometric mean of the MIC values against all bacterial strains) (all bacterial strains) [µg/mL]	GM of MIC Tot. bact. (all bacterial strains) [µg/mL]	Antimicrobial Activity (MIC) Gram + Cg [6] [µg/mL]	Antimicrobial Activity (MIC) Fungi Ap (A. pullulans (Ap)) [µg/mL]	GM of MIC G+ [7] [µg/mL]	MIC E. coli NR698 (mutant) [8] [µg/mL]	MIC E. coli MC4100 (WT) [9] [µg/mL]	Antimicrobial Activity (MIC) Gram + Se [10] [µg/mL]	Selectivity index (SI) G- [11, 13]	Selectivity index (SI) G+ [11, 13]	Selectivity index (SI) Fungi [11, 13]	RBC Tox. (EC50), haemolytic activity [11] [µg/mL]	Antimicrobial Activity (MIC) Gram + Bs [12] [µg/mL]	also measured
CC(C)C[C@H](NC(=O)[C@H](CCCNC(=N)N)NC(=O)[C@@H]1CSSC[C@H](N)C(=O)NCC(=O)N[C@@H](CCCNC(=N)N)C(=O)N[C@@H](CCCNC(=N)N)C(=O)N[C@@H](Cc2c[nH]c3ccccc23)C(=O)NCC(=O)N[C@@H](Cc2c[nH]c3ccccc23)C(=O)N[C@@H](Cc2c[nH]c3ccccc23)C(=O)N[C@@H](CCCNC(=N)N)C(=O)N1)C(N)=O [cTurg-6] (H-CGRRWGWWRCRL-NH2; disulfide 1-10; N-terminus assumed)	16	32	32	8	11	16	32	8	8	4	32	7	8 (≈ 4.9 µM)	8 (≈ 4.9 µM)	8	> 97	> 164	> 34	> 1045	4	MIC against the Gram-positive bacterial strains ([7]; 2 h): 4 to 16 µg/mL
CCCCCCCC(=O)N[C@H]1CSSC[C@@H](C(=O)N[C@@H](CCCCN)C(=O)N[C@@H](CC(C)C)C(N)=O)NC(=O)[C@H](CCCCN)NC(=O)[C@H](Cc2c[nH]c3ccccc23)NC(=O)CNC(=O)CNC(=O)[C@@H]2CCCN2C(=O)[C@H](CCCCN)NC(=O)[C@H](CCCCN)NC(=O)CNC1=O [Peptide C8-cTurg-1, C8 -(CGKKPGGWKC)KL-NH2] (Octanoyl-CGKKPGGWKCKL-NH2; disulfide 1-10)	128	32	8	32	64	128	64	25	25	4	64	16	8 (≈ 5.6 µM)	16 (≈ 11.2 µM)	32	> 15	> 59	> 29	>942	4	SI (selectivity index = EC50/GM) [11]: >37
CCCCCCCCCCCC(=O)N[C@H]1CSSC[C@@H](C(=O)N[C@@H](CCCNC(=N)N)C(=O)N[C@@H](CC(C)C)C(N)=O)NC(=O)[C@H](CCCNC(=N)N)NC(=O)[C@H](Cc2c[nH]c3ccccc23)NC(=O)[C@H](Cc2c[nH]c3ccccc23)NC(=O)CNC(=O)[C@H](Cc2c[nH]c3ccccc23)NC(=O)[C@H](CCCNC(=N)N)NC(=O)[C@H](CCCNC(=N)N)NC(=O)CNC1=O [Peptide C12-cTurg-6, C12- (CGRRWGWWRC)RL-NH2] (Lauroyl-CGRRWGWWRCRL-NH2; disulfide 1-10)	32	81	64	32	32	16	128	14	14	8	64	10	16 (≈ 8.82 µM)	16 (≈ 8.82 µM)	8		1		9	8	Selectivity index (SI) Tot. bact. ([11]; Table S3, EC50/GM of all bacterial strains, highest tested concentration used where EC50 above it): 1
CCCCCCCC(=O)N[C@H]1CSSC[C@@H](C(=O)N[C@@H](CCCNC(=N)N)C(=O)N[C@@H](CC(C)C)C(N)=O)NC(=O)[C@H](CCCNC(=N)N)NC(=O)[C@H](Cc2c[nH]c3ccccc23)NC(=O)[C@H](Cc2c[nH]c3ccccc23)NC(=O)CNC(=O)[C@H](Cc2c[nH]c3ccccc23)NC(=O)[C@H](CCCNC(=N)N)NC(=O)[C@H](CCCNC(=N)N)NC(=O)CNC1=O [Peptide C8-cTurg-6, C8- (CGRRWGWWRC)RL-NH2] (Octanoyl-CGRRWGWWRCRL-NH2; disulfide 1-10)	16	51	32	8	11	8	64	6	6	4	64	5	8 (≈ 4.55 µM)	8 (≈ 4.55 µM)	4	3	6	1	30	4	SI (selectivity index = EC50/GM) [11]: 5
